# Assay results taken from US5208223A, “Phosphocholine derivative inhibitors of phospholipase A2” (American Cyanamid Company, priority 1992, dated 1993).
# Several values for one entry are separate records, joined by “and”; a condition that tells them apart may be missing. Equal entries are not always repeated. Structures can show the parent of a compound that is named as a salt. Where two headings read alike, the source gives them in different places.
# What was measured:
# Type in all cases: biochemical
# porcine pancreatic PLA2 [1] = molecular target: T1, porcine pancreatic PLA2 (Sus scrofa, UniProt P00592); assay: MHPLA2 assay: in vitro porcine pancreatic phospholipase A2, mixed micelle design, [s]=10 μm; conditions: for % Inh.: subs. con. 10; for inhibition at 10 µg/mL: subs. con. 10, read-out: % Inh.; for inhibition at 25 µg/mL: subs. con. 10, read-out: % Inh. Avg.
# T1 construct: purchased Sigma
# T1 sequence (P00592 23-146): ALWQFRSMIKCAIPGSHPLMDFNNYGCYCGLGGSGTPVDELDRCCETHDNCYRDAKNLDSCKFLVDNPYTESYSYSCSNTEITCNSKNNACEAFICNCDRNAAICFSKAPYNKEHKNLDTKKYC
# Experimental: (§1) Phospholipase A2 activity was measured by a radiochemical assay in which labeled synthetic phosphatidylcholine substrate is converted by porcine pancreatic PLA2 to free radiolabeled arachidonate and lyso PC. Radiolabeled arachidonate is extracted from the reaction mixture and separated from unreacted substrate by column chromatography or TLC. Radioactivity (cpm) in samples is quantitated by liquid scintillation counting. Specific details are as follows:
# (§2) Labeled substrate(1-stearyl-2-^3 H-arachidonylphosphatidylcholine; Amersham, sp. act. 84 (uCi/mmole, 0.025 to 0.2 uCi/assay tube and unlabeled substrates (Avanti), in sufficient quantity to give 20,000 cpm to 50,000 cpm and 10 μM to 1,000 μM final concentration/assay tube are dried under a stream of nitrogen. The PLA2 and mPLA2 assays utilized a […] substrate concentration. The mHPLA2 and HPLA2 assays (vida infra) utilized a 10 μM substrate concentration and the SmPLA2 assay utilized a substrate concentration ranging from 100 to 1000 μm. The substrate is then redissolved in 0.1M tris-HCl buffer, pH 9.0 containing 10 mM CaCl2 and 10 mM Na taurocholate detergent. The mixture is sonicated in a Kontes Sonifier to yield a homogeneous dispersion. The "mixed" micellar substrate is clear. An aliquot is reserved for a cpm count (total substrate). The total reaction volume is 500 μL; siliconized glassware or plasticware is used throughout. Enzyme (Sigma, sp. act.>690 U/mg protein and preferably 900 U/mg protein) is diluted 1:750 or 1:1000 in 0.1M tris-HCl buffer, pH 9.0 (without Ca^++ and detergent). Enzyme dilution depends on substrate concentration and required enzyme concentration.
# (§3) The substrate in buffer is kept on ice until the reaction is started. The reaction is started by adding 10 μL of diluted enzyme solution to 490 μL of micellar substrate solution. Samples are incubated in a 37° C. water bath for 15 minutes with gentle mixing. The reaction is terminated by the addition of 100 μL of 1M fresh trichloroacetic acid (TCA) solution and chilling the tubes on ice for 30 minutes.
# (§4) Samples (600 μL) are extracted with 3 ml CHCl3 /MeOH (2:1) for thin layer chromatography or in hexane/ether (9:1) for column chromatography. The phases are separated by gentle centrifugation at 700 rpm×5'. The organic phase is recovered.
# (§5) Labeled arachidonate extracted with CHCl3 /MeOH is separated on silica gel G TLC plates (Analtech). Twenty μL of a 2 mg/ml internal standard solution of arachidonic acid (Sigma) is combined with 2-3 ml of the organic phase. The entire mixture is dried under nitrogen and redissolved in 50 μL of CHCl3 /MeOH (2:1). A 20 μL sample is counted in 10 ml of Beckman Redi-solv HP and spotted on silica gel G plates. The solvent system used to develop the plate is CHCl3 /MeOH/13.5N NH3 /H2 O (70:30:4:1). Plates are developed in a glass chamber for 1-11/2 hours, air dried, and the spots visualized in an iodine vapor chamber. Standards of phosphatidylcholine, lyso PC, and arachidonic acid (Sigma) are made as 2 mg/ml stocks in CHCl3 /MeOH (2:1) and spotted on plates. Spots corresponding to arachidonate and phospholipid are scraped and counted in 10 ml Beckman Redi-Solv HP scintillation fluid.
# (§6) Samples are extracted with hexane/ether and the upper organic phase recovered. An aliquot is applied to a Silicar CC4 (Malincrodt) column. Columns are prepared using 1 ml of a 1:1 slurry of silicar CC4 in hexane/ether in a Pasteur pipet (approx. 2 cm height). Columns are rinsed with 500 μL of hexane/ether before adding the sample (300-600 μL) to the column. Columns are eluted with a total of 6 ml of hexane/ether. The 6 ml sample is counted in 10 ml of Beckman Redi-Solv HP scintillation fluid.
# (§7) or the phospholipase A2 assay, compounds are prepared as 1 mg/ml stock solutions in MeOH and diluted appropriately in PBS. […]
# porcine pancreatic PLA2 [2] = molecular target: T1, porcine pancreatic PLA2; assay: PLA2 assay: in vitro porcine pancreatic phospholipase A2, preincubation of drug+enzyme, substrate 2 nM; conditions: preincubation, subs. con. 2; for inhibition at 25 µg/mL: dose 25 μ/ml; for inhibition at 50 µg/mL: dose 50 μ/ml
# Experimental: as §1, §2, §3, §4, §5, §6
# or the phospholipase A2 assay, compounds are prepared as 1 mg/ml stock solutions in MeOH and diluted appropriately in PBS.
# porcine pancreatic PLA2 [3] = molecular target: T1, porcine pancreatic PLA2; assay: MPLA2 assay: in vitro porcine pancreatic phospholipase A2, mixed micelle design, substrate 2 nM; conditions: dose 25 μ/ml, subs. con. 2
# Experimental: as §1, §2, §3, §4, §5, §6, §7
# [4] = dose 10 μ/ml, read-out: % Inh. Avg.
# [5] = read-out: IC50 Avg. (converted)
Structure (SMILES),IC50 (porcine pancreatic PLA2 [2]; read-out: IC50 (converted)),"inhibition at 20 µg/mL (porcine pancreatic PLA2 [2]; dose 20 μ/ml, read-out: % Inh.) [%]",inhibition at 10 µg/mL (porcine pancreatic PLA2 [2]; [4]) [%],"inhibition at 10 µg/mL (porcine pancreatic PLA2 [2]; dose 10 μ/ml, read-out: % Inh.) [%]",further results
"CCCCCCCCCCCCCCCCOC[C@@H](COP(=O)([O-])OCC[N+](C)(C)C)OP(=O)(OC)OCCCCCCCCCCCCCCCC (single isomer, unassigned) [3,5,8,10-Tetraoxa-4,9-diphosphahexacosan-1-aminium, 7-[(hexa]",–,–,–,–,% Inh. (porcine pancreatic PLA2 [1]; dose 25 μ/ml): 0%
"CCCCCCCCCCCCCCCCOCC(COP(=O)([O-])OCC[N+](C)(C)C)OP(=O)(OC)OCCCCC (single isomer, unassigned) [3,5,8,10-Tetraoxa-4,9-diphosphapentadecan-1-aminium, 7-[(hex] [3,5,8,10-Tetraoxa-4,9-diphosphapentadecan-1-aminium, 7-[(hexadecyloxy)methyl]-4-hydroxy-9-methoxy-N,N,N-trimethyl-, hydroxide, 4-(inner salt),4,9-dioxide, more polar isomer]",–,–,–,–,% Inh. (porcine pancreatic PLA2 [2]; dose 10 μ/ml): 82%; % Inh. (porcine pancreatic PLA2 [2]; dose 20 μ/ml): 89%; % Inh. (porcine pancreatic PLA2 [3]): STIM
"CCCCCCCCCCCCCCCCOCC(COP(=O)([O-])OCC[N+](C)(C)C)OP(=O)(OC)OCCCCC (single isomer, unassigned) [3,5,8,10-Tetraoxa-4,9-diphosphapentadecan-1-aminium, 7-[(hex] [3,5,8,10-Tetraoxa-4,9-diphosphapentadecan-1-aminium, 7-[(hexadecyloxy)methyl]-4-hydroxy-9-methoxy-N,N,N-trimethyl-, hydroxide, 4-(inner salt), 4,9-dioxide, less polar isomer]",–,–,–,–,% Inh. (porcine pancreatic PLA2 [1]; dose 25 μ/ml): STIM
"CCCCCCCCCCCCCCCCOCC(COP(=O)([O-])OCC[N+](C)(C)C)OP(=O)(OC)OCCCCC (single isomer, unassigned) [3,5,8,10-Tetraoxa-4,9-diphosphapentadecan-1-aminium, 7-[(hexadecyloxy)methyl]-4-hydroxy-9-methoxy-N,N,N-trimethyl-, hydroxide, 4-(inner salt),4,9-dioxide, more polar isomer]",3.87 µM,–,–,–,inhibition at 10 µg/mL (porcine pancreatic PLA2 [1]; dose 10 μ/ml): 0%
"CCCCCCCCCCCCCCCCOCC(COP(=O)([O-])OCC[N+](C)(C)C)OCC(=O)O (stereo not drawn) [2,5,7-Trioxa-6-phosphanonan-9-aminium, 1-carboxy-3-[(hexadecyloxy)methyl]-6-hydroxy-N,N,N-trimethyl-, hydroxide, inner salt, 6-oxide]",–,44,–,–,inhibition at 10 µg/mL (porcine pancreatic PLA2 [1]; dose 10 μ/ml): 6%; inhibition at 25 µg/mL (porcine pancreatic PLA2 [1]; dose 25 μ/ml): 30%
"CCCCCCCCCCCCCCCCOCC(COP(=O)([O-])OCC[N+](C)(C)C)OP(=O)(O)OCCCCCCCCCCCCCCCC (stereo not drawn) [3,5,8,10-Tetraoxa-4,9-diphosphahexacosan-1-aminium, 7-[(hexa] [3,5,8,10-Tetraoxa-4,9-diphosphahexacosan-1-aminium, 7-[(hexadecyloxy)methyl]-4,9-dihydroxy-N,N,N-trimethyl-, hydroxide, 4-inner salt), 4,9-dioxide]",–,–,–,–,% Inh. (porcine pancreatic PLA2 [1]; dose 10 μ/ml): STIM; % Inh. (porcine pancreatic PLA2 [1]; dose 25 μ/ml): STIM
"CCCCCCCCCCCCCCCCOC[C@@H](COP(=O)([O-])OCC[N+](C)(C)C)OP(=O)(O)OCCCCCCCCCCCCCCCC [3,5,8,10-Tetraoxa-4,9-diphosphahexacosan-1-aminium, 7-[(hexadecyloxy)methyl]-4,9-dihydroxy-N,N,N-trimethyl-, hydroxide, 4-(inner salt), 4,9-dioxide, (7S)]",–,–,17,–,"% Inh. (porcine pancreatic PLA2 [1]; dose 10 μ/ml): STIM; % Inh. (porcine pancreatic PLA2 [1]; dose 25 μ/ml): STIM; inhibition at 20 µg/mL (porcine pancreatic PLA2 [2]; dose 20 μ/ml, read-out: % Inh. Avg.): 16%; inhibition at 25 µg/mL (porcine pancreatic PLA2 [2]; read-out: % Inh.): 8%"
"CCCCCCCCCCCCCCCCOCC(COP(=O)([O-])OCC[N+](C)(C)C)OP(=O)(OC)OCCCCCCCCCCCCCCCC (stereo not drawn) [3,5,8,10-Tetraoxa-4,9-diphosphahexacosan-1-aminium, 7-[(hexadecyloxy)methyl]-4-hydroxy-9-methoxy-N,N,N-trimethyl-, hydroxide, inner salt, 4,9-dioxide]",4 µM and 3.5 µM,–,–,–,inhibition at 25 µg/mL (porcine pancreatic PLA2 [1]; dose 25 μ/ml): 62%; IC50 (porcine pancreatic PLA2 [2]; [5]): 3.75 µM
"CCCCCCCCCCCCCCCCOCC(COP(=O)([O-])OCC[N+](C)(C)C)OP(=O)(OC)OCCCCCCCCCCCCCCCC (stereo not drawn) [3,5,8,10-Tetraoxa-4,9-diphosphahexacosan-1-aminium, 7-[(hexadecyloxy)methyl]-4-hydroxy-9-methoxy-N,N,N-trimethyl-hydroxide, inner salt, 4,9-dioxide]",7.5 µM and 5.62 µM and 7.25 µM,65,–,61,inhibition at 10 µg/mL (porcine pancreatic PLA2 [1]; dose 10 μ/ml): 0%; inhibition at 25 µg/mL (porcine pancreatic PLA2 [2]; read-out: % Inh.): 71%; inhibition at 25 µg/mL (porcine pancreatic PLA2 [2]; read-out: % Inh. Avg.): 77%; inhibition at 50 µg/mL (porcine pancreatic PLA2 [2]; read-out: % Inh.): 73% and 88%; inhibition at 50 µg/mL (porcine pancreatic PLA2 [2]; read-out: % Inh. Avg.): 80%; IC50 (porcine pancreatic PLA2 [2]; [5]): 6.75 µM
"CCCCCCCCCCCCCCCCOCC(COP(=O)([O-])OCC[N+](C)(C)C)CC(C)(O)CCCCCCCCCCCCCCCC (stereo not drawn) [4-Hydroxy-7-(2-hydroxy-2-methyloctadecyl)-N,N,N-trimethyl-3,5,9-trioxa-4-phosphapentacosan-1-aminium, hydroxide, inner salt, 4-oxide]",7.89 µM,66,64,65,–
"C=C(CCCCCCCCCCCCCCCC)CC(COCCCCCCCCCCCCCCCC)COP(=O)([O-])OCC[N+](C)(C)C (stereo not drawn) [4-Hydroxy-N,N,N-trimethyl-7-(2-methyleneoctadecyl)-3,5,9-trioxa-4-phosphaoentacosan-1-aminium, hydroxide, inner salt, 4-oxide]",5.2 µM,52,62,59,–
"CCCCCCCCCCCCCCCCOCC(CC=O)COP(=O)([O-])OCC[N+](C)(C)C (stereo not drawn) [4-Hydroxy-N,N,N-trimethyl-7-(2-oxoethyl)-3,5,9-trioxa-4-phosphapentacosan-1-aminium, hydroxide, inner salt, 4-oxide]",26 µM,62,43,47,–
"CCCCCCCCCCCCCCCCOCC(COP(=O)([O-])OCC[N+](C)(C)C)CC(=O)CCCCCCCCCCCCCCCC (stereo not drawn) [4-Hydroxy-N,N,N-trimethyl-7-(2-oxooctadecyl)-3,5,9-trioxa-4-phosphapentacosan-1-aminium, hydroxide inner salt, 4 oxide]",7.92 µM,62,60,59,–
"CCCCCCCCCCCCCCCCOCC(COP(=O)([O-])OCC[N+](C)(C)C)CC1(CCCCCCCCCCCCCCCC)CO1 (stereo not drawn) [7-[(2-Hexadecyloxiranyl)methyl]-4-hydroxy-N,N,N-trimethyl-3,5,9-trioxa-4-phosphapentacosan-1-aminium, hydroxide, inner salt, 4-oxide]",2.41 µM,75,–,78,–
